Measurements from patent publication EP2958918B1, “DIHYDROPTERIDINONES II” (Boehringer Ingelheim International GmbH, priority 2013, dated 2014).
pIC50: −log10 of the molar value.

Columns and labels:
Aβ42 = Aβ42 cellular assay: inhibition of Aβ42 production in H4 neuroglioma cells stably expressing human APP695, electrochemiluminescence (Meso Scale Discovery) on supernatant; type: cell-based; conditions: 22 hours incubation, tested range 30 µM to 0.1 nM
Protocol: (§1) Cells were plated out to near confluency. The compounds to be tested were received as 10 mM stocks in 100% DMSO. A dilution series was initially generated in 100% DMSO and then diluted 200-fold in cell culture media such that the tested concentration range was 30 µM to 0.1 nM and the final DMSO concentration was 0.5%. The diluted compounds were incubated with the cells for 22 hours in an incubator at 37°C and 5% CO2. Aβ42 as well as Aβ total levels were then measured post-incubation from the supernatant of the cells. Aβ42 levels were determined using a specific electrochemiluminescence assay provided by Meso Scale Discovery (Catalog # L21CA-1) according to the manufacturer's protocol. Aβ total levels were likewise determined using a specific electrochemiluminescence assay provided by Meso Scale Discovery (Catalog # L21ZA-1) according to the manufacturer's protocol.
(§2) In order to absolutely define the described compounds as modulators of y-Secretase as opposed to simply inhibitors of γ-Secretase, measurements of not only Aβ42 but also Aβ total are performed.

Aβ total = Aβ total cellular assay: inhibition of Aβ total production in H4 neuroglioma cells stably expressing human APP695, electrochemiluminescence (Meso Scale Discovery) on supernatant; used for the ratio Aβ total IC50 / Aβ42 IC50; type: cell-based; conditions: higher ratio = more specific inhibition of Aβ42
Protocol: as §1, §2

| Compound | pIC50 (Aβ42) | Ratio Aß(total)/Aß42 (Aβ total) |
| --- | --- | --- |
| COc1cc(Nc2ncc3c(n2)N(C)C2(COCCOC2)C(=O)N3)ccc1-n1cnc(C)c1 [Example 25] | 6.54 | 91 |
| COc1cc(Nc2ncc3c(n2)N(C)C2(CCOC2)C(=O)N3CC2CCOCC2)ccc1-n1cnc(C)c1 (stereo not drawn) [Example 26] | 6.46 | 46 |
| COc1cc(Nc2ncc3c(n2)N(C)C2(COCCOC2)C(=O)N3C)ccc1-n1cnc(C)c1 [Example 27] | 6.57 | > 112 |
| COc1cc(Nc2ncc3c(n2)NC2(CCOC2)C(=O)N3C2COC2)ccc1-n1cnc(C)c1 (stereo not drawn) [Example 28] | 4.98 | >3 |
| COc1cc(Nc2ncc3c(n2)NC2(CCOC2)C(=O)N3CCC(C)C)ccc1-n1cnc(C)c1 (stereo not drawn) [Example 29] | 6.57 | 39 |
| COCCN1c2nc(Nc3ccc(-n4cnc(C)c4)c(OC)c3)nc(CC(C)C)c2N(C)C(=O)C12CCOC2 (stereo not drawn) [Example 30] | 7.00 | 96 |
| COCCN1c2nc(Nc3ccc(-c4cnc(C)o4)c(OC)c3)nc(CC(C)C)c2N(C)C(=O)C12CCOC2 (stereo not drawn) [Example 31] | 6.74 | 47 |
| COc1cc(Nc2nc(CC(C)C)c3c(n2)N(C)C2(CCOC2)C(=O)N3C)ccc1-n1cnc(C)c1 (stereo not drawn) [Example 32] | 7.10 | 124 |
| COc1cc(Nc2nc(CC(C)C)c3c(n2)NC2(CCOC2)C(=O)N3)ccc1-n1cnc(C)c1 (stereo not drawn) [Example 33] | 6.85 | 124 |
| CCc1nc(Nc2ccc(-n3cnc(C)c3)c(OC)c2)nc2c1N(C)C(=O)C1(CCOC1)N2C (stereo not drawn) [Example 34] | 7.14 | 115 |
| CCc1nc(Nc2ccc(-n3cnc(C)c3)c(C#N)c2)nc2c1N(C)C(=O)C1(CCOC1)N2C (stereo not drawn) [Example 35] | 7.12 | 180 |
| COc1cc(Nc2ncc3c(n2)N(C)C2(CCc4ccccc4C2)C(=O)N3C)ccc1-n1cnc(C)c1 (stereo not drawn) [Example 36] | 7.16 | 179 |
| Cc1ncc(-c2ccc(Nc3ncc4c(n3)N(C)C3(CCc5ccccc5C3)C(=O)N4C)cn2)o1 (stereo not drawn) [Example 37] | 6.03 | 29 |
| COc1cc(Nc2ncc3c(n2)N(C)C2(CCOC2)C(=O)N3c2ccc(F)cc2)ccc1-n1cnc(C)c1 (stereo not drawn) [Example 37a] | 7.22 | 307 |
| COc1cc(Nc2ncc3c(n2)N(C)C2(CCOCC2)C(=O)N3C2CC2)ccc1-n1cnc(C)c1 [Example 37b] | 6.76 | 47 |
| COc1cc(Nc2ncc3c(n2)N(C)C2(CCOCC2)C(=O)N3c2cc(F)cc(F)c2)ccc1-n1cnc(C)c1 [Example 37c] | 6.94 | 75 |
| COc1cc(Nc2nc3c(c(C(F)(F)F)n2)N(C)C(=O)C2(CCOCC2)N3C)ccc1-n1cnc(C)c1 [Example 37d] | 6.09 | >36 |
| COc1cc(Nc2ncc3c(n2)N(C)C2(CCOC2)C(=O)N3CC(F)(F)F)ccc1-n1cnc(C)c1 (stereo not drawn) [Example 37e] | 7.07 | 82 |
| COc1cc(Nc2ncc3c(n2)N(C)C2(CCOCC2)C(=O)N3c2ccc(F)cc2)ccc1-n1cnc(C)c1 [Example 37f] | 6.84 | 55 |
| COc1cc(Nc2ncc3c(n2)N(C)C2(CCOC2)C(=O)N3C2CC2)ccc1-n1cnc(C)c1 (stereo not drawn) [Example 37g] | 6.71 | 58 |
| COc1cc(Nc2ncc3c(n2)N(C)C2(CCOC2)C(=O)N3CC(F)F)ccc1-n1cnc(C)c1 (stereo not drawn) [Example 37h] | 6.91 | 85 |

| Compound | pIC50 (Aβ42) | Ratio Aß(total)/Aß42 (Aβ total) |
| --- | --- | --- |
| CCc1nc(Nc2cnc(-n3cnc(C)c3)c(OC)c2)nc2c1N(C)C(=O)C1(CC1)N2C [Example 37i] | 6.82 | 54 |
| COc1cc(Nc2ncc3c(n2)N(C)C2(CCOCC2)C(=O)N3Cc2ccc(F)cc2F)ccc1-n1cnc(C)c1 [Example 37j] | 7.14 | 57 |
| COc1cc(Nc2ncc3c(n2)N(C)C2(CCOC2)C(=O)N3C(C)c2ccccn2)ccc1-n1cnc(C)c1 (stereo not drawn) [Example 37k] | 6.92 | 88 |
| COc1cc(Nc2ncc3c(n2)N(C2CCCC2)C2(CC2)C(=O)N3C)ccc1-n1cnc(C)c1 [Example 38] | 6.39 | >15 |
| COc1cc(Nc2ncc3c(n2)N(C)C2(CCCCOC2)C(=O)N3C)ccc1-n1cnc(C)c1 (stereo not drawn) [Example 39] | 7.11 | 91 |
| COc1cc(Nc2nc3c(c(C(C)(C)O)n2)N(C)C(=O)C2(CCOC2)N3C)ccc1-c1cnc(C)o1 (stereo not drawn) [Example 40] | 6.31 | > 62 |
| COc1cc(Nc2ncc3c(n2)N(C)C2(COC2)C(=O)N3C)ccc1-n1cnc(C)c1 [Example 41] | 5.91 | > 25 |
| COc1cc(Nc2ncc3c(n2)N(C)C2(CCCOCC2)C(=O)N3C)ccc1-n1cnc(C)c1 (stereo not drawn) [Example 42] | 6.69 | 51 |
| COc1cc(Nc2ncc3c(n2)N(C)C2(CCC2)C(=O)N3C)ccc1-n1cnc(C)c1 [Example 43] | 6.91 | 237 |
| COc1cc(Nc2ncc3c(n2)N(C)C2(CC2)C(=O)N3CC(F)(F)F)ccc1-n1cnc(C)c1 [Example 44] | 7.07 | 50 |
| COc1cc(Nc2ncc3c(n2)N(C)C2(CCC2)C(=O)N3CC(F)(F)F)ccc1-c1cnc(C)o1 [Example 45] | 7.24 | > 517 |
| COc1cc(Nc2ncc3c(n2)N(C)C2(CC2)C(=O)N3c2ccc(F)cc2)ccc1-n1cnc(C)c1 [Example 46] | 7.01 | > 306 |
| COc1cc(Nc2ncc3c(n2)N(C)C2(CC2)C(=O)N3C2COC2)ccc1-n1cnc(C)c1 [Example 47] | 6.72 | 98 |
| COc1cc(Nc2ncc3c(n2)N(C)C2(CCOC2)C(=O)N3c2ccc(C(F)(F)F)cn2)ccc1-n1cnc(C)c1 (stereo not drawn) [Example 48] | 6.41 | 22 |
| COc1cc(Nc2ncc3c(n2)N(C)C2(CC4CCC2C4)C(=O)N3C)cnc1-n1cnc(C)c1 (stereo not drawn) [Example 49] | 7.02 | 69 |
| COc1cc(Nc2ncc3c(n2)N(C)C2(CC2)C(=O)N3CC(F)(F)F)cnc1-n1cnc(C)c1 [Example 50] | 6.69 | > 147 |
| COc1cc(Nc2ncc3c(n2)N(C)C2(CC2)C(=O)N3CC(F)(F)F)ccc1-n1ccnc1C [Example 51] | 7.23 | 126 |
| COc1cc(Nc2ncc3c(n2)N(C)C2(CC2)C(=O)N3CC(F)F)ccc1-n1cnc(C)c1 [Example 52] | 6.96 | 61 |
| COc1cc(Nc2ncc3c(n2)N(C)C2(CCCC2)C(=O)N3C)ccc1-n1cnc(C)c1 [Example 53] | 7.40 | 132 |
| COc1cc(Nc2ncc3c(n2)N(C)C2(CCCC2)C(=O)N3CC(F)(F)F)ccc1-n1cnc(C)c1 [Example 54] | 7.66 | 116 |
| COc1cc(Nc2nc(CC(F)(F)F)c3c(n2)N(C)C2(CC2)C(=O)N3C)ccc1-n1cnc(C)c1 [Example 55] | 7.12 | 103 |
